The molecules below were run against T1, Recombinant human liver GK1 (GST-GK) (Homo sapiens, UniProt P35557) (assay: In vitro glucokinase activity, G6PDH-coupled spectrophotometric assay). Settings: 5 mM D-glucose, 30° C., pH 7.1.
T1 construct: made in house; host or cells: E. coli
T1 sequence (P35557 1-466 isoform P35557-2): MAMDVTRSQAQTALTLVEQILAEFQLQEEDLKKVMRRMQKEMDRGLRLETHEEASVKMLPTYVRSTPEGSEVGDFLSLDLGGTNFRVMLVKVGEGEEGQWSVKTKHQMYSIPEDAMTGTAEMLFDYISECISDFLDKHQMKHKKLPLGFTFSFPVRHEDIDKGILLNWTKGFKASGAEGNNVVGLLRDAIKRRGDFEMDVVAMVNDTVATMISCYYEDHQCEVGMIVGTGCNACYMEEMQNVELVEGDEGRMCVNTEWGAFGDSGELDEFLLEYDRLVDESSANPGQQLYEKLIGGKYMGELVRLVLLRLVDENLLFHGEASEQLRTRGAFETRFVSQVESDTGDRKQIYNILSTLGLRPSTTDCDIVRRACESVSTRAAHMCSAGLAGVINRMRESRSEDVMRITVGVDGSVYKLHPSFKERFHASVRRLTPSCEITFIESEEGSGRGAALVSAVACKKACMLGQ
Assay type: biochemical
Procedure: Glucokinase In Vitro Assay Protocol: Glucokinase (GK) was assayed by coupling the production of glucose-6-phosphate to the generation of NADH with glucose-6-phosphate dehydrogenase (G6PDH, 0.75-1 kunits/mg; Boehringer Mannheim, Indianapolis, Ind.) from Leuconostoc mesenteroides as the coupling enzyme (Scheme 2).
Recombinant human liver GK1 was expressed in E. coli as a glutathione S-transferase fusion protein (GST-GK) [Liang et al, 1995] and was purified by chromatography over a glutathione-Sepharose 4B affinity column using the procedure provided by the manufacturer (Amersham Pharmacia Biotech, Piscataway, N.J.).
The assay was conducted at 30° C. in a flat bottom 96-well tissue culture plate from Costar (Cambridge, Mass.) with a final incubation volume of 120 μL. The incubation reaction contained the following: 25 mM Hepes buffer (pH 7.1), 25 mM KCl, 5 mM D-glucose, 1 mM ATP, 1.8 mM NAD, 2 mM MgCl2, 1 μM sorbitol-6-phosphate, 1 mM dithiothreitol, test drug or 10% dimethylsulfoxide, ˜7 units/ml G6PDH, and GK (see below). All organic reagents were >98% pure and were from Boehringer Mannheim with the exceptions of D-glucose and Hepes which were from Sigma Chemical Co, St Louis, Mo. Test compounds were dissolved in dimethylsulfoxide and were added to the incubation reaction minus GST-GK in a volume of 12 μL to yield a final dimethylsulfoxide concentration of 10%. This mix was pre-incubated in the temperature controlled chamber of a SPECTRAmax 250 microplate spectrophotometer (Molecular Devices Corporation, Sunnyvale, Calif.) for 10 minutes to allow temperature equilibrium and then the reaction was started by the addition of 20 μL GST-GK.
After addition of enzyme, the increase in optical density (OD) at 340 nm was monitored spectrophotometrically to determine the rate of change (OD340 per min). The GK activity (OD340/min) in control wells (10% dimethylsulfoxide minus GK activators) was compared with the activity in wells containing test GK activators, and the concentration of activator that produced a 50% increase in the activity of GK, i.e., the SC1.5, was calculated.

Structure (SMILES)	SC1.5 (concentration of activator that produced a 50% increase in the activity of GK)
O=C1C(=O)N(C(CC2CCCC2)C(=O)Nc2ccccn2)c2ccc(OC(F)(F)F)cc21 (centres unmarked) [Example 30, 3-Cyclopentyl-2-(2,3-dioxo-5-trifluoromethoxy-2,3-dihydro-indol-1-yl)-N-pyridin-2-yl-propionamide]	0.33 µM
Cn1ccc(NC(=O)C(CC2CCCC2)N2C(=O)C(=O)c3cc(OC(F)(F)F)ccc32)n1 (centres unmarked) [Example 31, 3-Cyclopentyl-2-(2,3-dioxo-5-trifluoromethoxy-2,3-dihydro-indol-1-yl)-N-(1-methyl-1H-pyrazol-3-yl)-propionamide]	1.65 µM
O=C1C(=O)N(C(CC2CCCC2)C(=O)Nc2nccs2)c2ccc(OC(F)(F)F)cc21 (centres unmarked) [Example 32, 3-Cyclopentyl-2-(2,3-dioxo-5-trifluoromethoxy-2,3-dihydro-indol-1-yl)-N-thiazol-2-yl-propionamide]	0.76 µM
O=C(Nc1ccccn1)C(CC1CCCC1)N1C(=O)Cc2cc(OC(F)(F)F)ccc21 (centres unmarked) [Example 33, 3-Cyclopentyl-2-(2-oxo-5-trifluoromethoxy-2,3-dihydro-indol-1-yl)-N-pyridin-2-yl-propionamide]	0.13 µM
Cn1ccc(NC(=O)C(CC2CCCC2)N2C(=O)Cc3cc(OC(F)(F)F)ccc32)n1 (centres unmarked) [Example 34, 3-Cyclopentyl-N-(1-methyl-1H-pyrazol-3-yl)-2-(2-oxo-5-trifluoromethoxy-2,3-dihydro-indol-1-yl)-propionamide]	1.07 µM
O=C(Nc1nccs1)C(CC1CCCC1)N1C(=O)Cc2cc(OC(F)(F)F)ccc21 (centres unmarked) [Example 35, 3-Cyclopentyl-2-(2-oxo-5-trifluoromethoxy-2,3-dihydro-indol-1-yl)-N-thiazol-2-yl-propionamide]	0.49 µM
O=C(Nc1cnccn1)C(CC1CCCC1)N1C(=O)Cc2cc(OC(F)(F)F)ccc21 (centres unmarked) [Example 36, 3-Cyclopentyl-2-(2-oxo-5-trifluoromethoxy-2,3-dihydro-indol-1-yl)-N-pyrazin-2-yl-propionamide]	0.63 µM
CC(C)CC(C(=O)Nc1cnccn1)N1C(=O)C(=O)c2cc(OC(F)(F)F)ccc21 (centres unmarked) [Example 37, 2-(2,3-Dioxo-5-trifluoromethoxy-2,3-dihydro-indol-1-yl)-4-methyl-pentanoic acid pyrazin-2-ylamide]	19.72 µM
CC(C)CC(C(=O)Nc1ccccn1)N1C(=O)C(=O)c2cc(OC(F)(F)F)ccc21 (centres unmarked) [Example 38, 2-(2,3-Dioxo-5-trifluoromethoxy-2,3-dihydro-indol-1-yl)-4-methyl-pentanoic acid pyridin-2-ylamide]	2.57 µM
CC(C)CC(C(=O)Nc1ccn(C)n1)N1C(=O)C(=O)c2cc(OC(F)(F)F)ccc21 (centres unmarked) [Example 39, 2-(2,3-Dioxo-5-trifluoromethoxy-2,3-dihydro-indol-1-yl)-4-methyl-pentanoic acid (1-methyl-1H-pyrazol-3-yl)-amide]	21.28 µM
CC(C)CC(C(=O)Nc1nccs1)N1C(=O)C(=O)c2cc(OC(F)(F)F)ccc21 (centres unmarked) [Example 40, 2-(2,3-Dioxo-5-trifluoromethoxy-2,3-dihydro-indol-1-yl)-4-methyl-pentanoic acid thiazol-2-ylamide]	5.97 µM
CC(C)CC(C(=O)Nc1nccs1)N1C(=O)Cc2cc(OC(F)(F)F)ccc21 (centres unmarked) [Example 41, 4-Methyl-2-(2-oxo-5-trifluoromethoxy-2,3-dihydro-indol-1-yl)-pentanoic acid thiazol-2-ylamide]	2.81 µM
CC(C)CC(C(=O)Nc1ccn(C)n1)N1C(=O)Cc2cc(OC(F)(F)F)ccc21 (centres unmarked) [Example 42, 4-Methyl-2-(2-oxo-5-trifluoromethoxy-2,3-dihydro-indol-1-yl)-pentanoic acid (1-methyl-1H-pyrazol-3-yl)-amide]	8.12 µM
CC(C)CC(C(=O)Nc1ccccn1)N1C(=O)Cc2cc(OC(F)(F)F)ccc21 (centres unmarked) [Example 43, 4-Methyl-2-(2-oxo-5-trifluoromethoxy-2,3-dihydro-indol-1-yl)-pentanoic acid pyridin-2-ylamide]	1.41 µM
CC(C)CC(C(=O)Nc1cnccn1)N1C(=O)Cc2cc(OC(F)(F)F)ccc21 (centres unmarked) [Example 44, 4-Methyl-2-(2-oxo-5-trifluoromethoxy-2,3-dihydro-indol-1-yl)-pentanoic acid pyrazin-2-ylamide]	3.67 µM
COc1ccc2c(c1)C(=O)C(=O)N2C(CC1CCCC1)C(=O)Nc1cnccn1 (centres unmarked) [Example 45, 3-Cyclopentyl-2-(5-methoxy-2,3-dioxo-2,3-dihydro-indol-1-yl)-N-pyrazin-2-yl-propionamide]	12.29 µM
COc1ccc2c(c1)C(=O)C(=O)N2C(CC1CCCC1)C(=O)Nc1ccccn1 (centres unmarked) [Example 46, 3-Cyclopentyl-2-(5-methoxy-2,3-dioxo-2,3-dihydro-indol-1-yl)-N-pyridin-2-yl-propionamide]	2.32 µM
COc1ccc2c(c1)C(=O)C(=O)N2C(CC1CCCC1)C(=O)Nc1ccn(C)n1 (centres unmarked) [Example 47, 3-Cyclopentyl-2-(5-methoxy-2,3-dioxo-2,3-dihydro-indol-1-yl)-N-(1-methyl-1H-pyrazol-3-yl)-propionamide]	23.88 µM
COc1ccc2c(c1)C(=O)C(=O)N2C(CC1CCCC1)C(=O)Nc1nccs1 (centres unmarked) [Example 48, 3-Cyclopentyl-2-(5-methoxy-2,3-dioxo-2,3-dihydro-indol-1-yl)-N-thiazol-2-yl-propionamide]	5.48 µM
COc1ccc2c(c1)CC(=O)N2C(CC1CCCC1)C(=O)Nc1ccccn1 (centres unmarked) [Example 49, 3-Cyclopentyl-2-(5-methoxy-2-oxo-2,3-dihydro-indol-1-yl)-N-pyridin-2-yl-propionamide]	1.74 µM
COc1ccc2c(c1)CC(=O)N2C(CC1CCCC1)C(=O)Nc1ccn(C)n1 (centres unmarked) [Example 50, 3-Cyclopentyl-2-(5-methoxy-2-oxo-2,3-dihydro-indol-1-yl)-N-(1-methyl-1H-pyrazol-3-yl)-propionamide]	8.39 µM
COc1ccc2c(c1)CC(=O)N2C(CC1CCCC1)C(=O)Nc1nccs1 (centres unmarked) [Example 51, 3-Cyclopentyl-2-(5-methoxy-2-oxo-2,3-dihydro-indol-1-yl)-N-thiazol-2-yl-propionamide]	3.6 µM
COc1ccc2c(c1)CC(=O)N2C(CC1CCCC1)C(=O)Nc1cnccn1 (centres unmarked) [Example 52, 3-Cyclopentyl-2-(5-methoxy-2-oxo-2,3-dihydro-indol-1-yl)-N-pyrazin-2-yl-propionamide]	4.76 µM

Same assay, conditions: @ 30 uM; 5 mM D-glucose, 30° C.

Structure (SMILES)	fold induction at 30 µM
COc1ccc2c(c1)C(=O)C(=O)N2C(CC(C)C)C(=O)Nc1cnccn1 (centres unmarked) [Example 53, 2-(5-Methoxy-2,3-dioxo-2,3-dihydro-indol-1-yl)-4-methyl-pentanoic acid pyrazin-2-ylamide]	1.16
COc1ccc2c(c1)C(=O)C(=O)N2C(CC(C)C)C(=O)Nc1ccccn1 (centres unmarked) [Example 54, 2-(5-Methoxy-2,3-dioxo-2,3-dihydro-indol-1-yl)-4-methyl-pentanoic acid pyridin-2-ylamide]	1.49
COc1ccc2c(c1)C(=O)C(=O)N2C(CC(C)C)C(=O)Nc1nccs1 (centres unmarked) [Example 55, 2-(5-Methoxy-2,3-dioxo-2,3-dihydro-indol-1-yl)-4-methyl-pentanoic acid thiazol-2-ylamide]	1.39

Source: patent US20120142705A1, “ISATIN AND OXINDOLE COMPOUNDS” (priority 2010, published 2012)
